Like-named read-outs stand apart in the source and are kept apart here. No end group written: not given here.
Columns and labels:
[1] = FIG.5; conditions: for half-life: CD, rat, plasma, iv, read-out: T1/2β (converted)
Excerpt: Table printed on a drawing sheet, FIG.5
The patent's description of the figure: FIG. 5.
First reader's note: The table is printed under a plasma concentration-time plot of the same two peptides, which is not copied.

[2] = test system: RSV; assay: Respiratory syncytial virus plaque reduction assay (Hep2 cells); assay type: cell-based
Method: All necessary dilutions of peptides were performed in clean, sterile 96-well TC plate. A total of eleven dilutions for each peptide and one control well containing no peptide were assembled. The final concentration range of peptide started at 50 μg/ml or 100 μg/ml, with a total of eleven two-fold dilutions. The RSV was prepared at a concentration of 100PFU/well in 100 μl 3% EMEM, as determined by a known titer of RSV. The virus is then added to all of the wells.
The media was removed from one sub-confluent 96-well plate of Hep2 cells. The material from the dilution plate was transferred onto the cell plates starting with row 1 and then transferring row 12, row 11, etc. until all rows were transferred. Plates were placed back into the incubator for 48 hours.
The cells were checked to ensure that syncytia were present in the control wells. Media was removed and approximately 50 μls of 0.25% Crystal Violet in methanol was added to each well. The wells were rinsed immediately in water to remove excess stain and allowed to dry. Using a dissecting microscope, the number of syncytia in each well was counted.

[3] = Rat pharmacokinetic studies, IV, fluorescence HPLC of plasma; assay type: in vivo, CD rats; conditions: for half-life relative to core peptide T1476 / half-life relative to core peptide T786: CD rats
Method: 250-300 g male CD rats, double jugular catheter, obtained from Charles River Laboratories were used. Peptides were injected in one jugular catheter in a volume of 200 μl of peptide solution (approximately 3.75 mg/ml), dosing solution concentration was determined using the Edelhoch method, (Edelhoch, 1967, Biochemistry 6:1948-1954) method and adjusted based on animal weight such that each animal received a dose of 2.5 mg/kg). Approximately 250-300 μl of blood was removed at predetermined time intervals (0, 15, 30 min and 1, 2, 4, 6, and 8 hours) and added to EDTA capiject tubes. Plasma was removed from pelleted cells upon centrifugation and either frozen or immediately processed for fluorescence HPLC analysis.
100 μl of sample plasma was added to 900 μl of precipitation buffer (acetonitrile, 1.0% TFA, detergent) resulting in precipitation of the majority of plasma proteins. Following centrifugation at 10,000 rpm for 10 min, 400 μl of the supernatant was removed and added to 600 μl of HPLC grade water. Serial dilutions were performed as dictated by concentration of peptide present in each sample in dilution buffer comprised of 40% precipitation buffer and 60% HPLC water. In addition to sample dilutions, serial dilutions of dosing solution were performed in buffer as well as in plasma and used to generate a standard curve relating peak area to known concentration of peptide. This curve was then used to calculate concentration of peptide in plasma taking into account all dilutions performed and quantity injected onto column.

[4] = target: M41Δ178 (a truncated gp41 ectodomain fusion protein lacking the T20 amino acid sequence)
[5] = test system: HIV-1
[6] = test system: SIV isolate B670; assay: Magi-CCR-5 infectivity assay; assay type: cell-based
[7] = test system: HIV-1; assay: Human PBMC infectivity/neutralization assay; assay type: cell-based
Method: The prototypic assay used cell lines where the primary isolate assay utilizes PBMC, obtained through Interstate Blood Bank, activated for 2-3 days with a combination of OKT3 (0.5 μg/ml) and CD28 antibodies (0.1 μg/ml). The target cells were banded on lymphocyte separation medium (LSM), washed, and frozen. Cells were thawed as required and activated as indicated above a minimum of 2-3 days prior to assay. In this 96-well format assay, cells were at a concentration of 2×10^6/ml in 5% IL-2 medium and a final volume of 100 μl. Peptide stock solutions were made in DPBS (1 mg/ml). Peptide dilutions were performed in 20% FBS RPM1 1640/5% IL-2 complete medium.

[8] = test system: HIV-1; remark: listed apart in the source
[9] = test system: HIV-2 NIHZ; assay: virus mediated cell-cell fusion assay (chronically infected CEM cells mixed with uninfected Molt-4 cells); assay type: cell-based
[10] = test system: HIV-1 9320; assay: In vivo HuPBMC-SCID mouse model of HIV-1 9320 infection; parameters: species or system SCID mice; conditions: 67 mg/kg total daily dose, IP, bid, 8 days
Method: Female SCID mice (5-7 weeks old) received 5-10×10^7 adult human PBMC injected intraperitoneally. Two weeks after reconstitution, mice were infected IP on day 0 with 10^3 TCID50 HIV-1 9320 (AZT-sensitive isolate A018). Treatment with peptides was IP, bid, beginning day −1 and continuing through day 6. The extent of infection in blood cells, splenocytes, lymph nodes, and peritoneal cells was assayed by quantitative co-culture with human PBMC blasts weekly for three consecutive weeks following animal exsanguinations and tissue harvest (day 7, approximately 12-18 hours following the last drug treatment). Co-culture supernatants were evaluated for HIV-1 p24 antigen production as a measure of virus infection (Immunotek Coulter kits and protocol).
Two weeks after reconstitution with HuPBMCs, mice were infected IP on day 0 with 10^3 TCID50 HIV-1 9320 passed in PBMCs (AZT-sensitive isolate A018). […] The extent of infection in blood cells, splenocytes, lymph nodes, and peritoneal cells was assayed by quantitative co-culture with human PBMC blasts weekly for three consecutive weeks following animal exsanguinations and tissue harvest (day 7, approx. 12 to 18 hours following last drug treatment). Co-culture supernatants were evaluated for HIV-1 p24 antigen production as a measure of virus infection.

[11] = target: M41Δ178 (a truncated gp41 ectodomain fusion protein lacking the T20 amino acid sequence); remark: listed apart in the source

## CC[C@H](C)[C@H](NC(=O)[C@H](CCC(N)=O)NC(=O)[C@H](C)NC(=O)[C@H](CCC(N)=O)NC(=O)[C@H](CCC(=O)O)NC(=O)[C@H](CC(C)C)NC(=O)[C@H](CC(C)C)NC(=O)[C@H](C)NC(=O)[C@@H](NC(=O)[C@@H](NC(=O)[C@H](CCCCN)NC(=O)[C@H](CCC(N)=O)NC(=O)[C@H](CCC(=O)O)NC(=O)[C@H](Cc1c[nH]c2ccccc12)NC(=O)[C@H](CCC(=O)O)NC(=O)[C@H](CCC(N)=O)NC(=O)[C@H](Cc1c[nH]c2ccccc12)NC(C)=O)[C@@H](C)CC)[C@@H](C)O)C(=O)N[C@@H](CCC(N)=O)C(=O)N[C@@H](CCC(N)=O)C(=O)N[C@@H](CCC(=O)O)C(=O)N[C@@H](CCCCN)C(=O)N[C@@H](CC(N)=O)C(=O)N[C@@H](CCC(=O)O)C(=O)N[C@@H](Cc1ccc(O)cc1)C(=O)N[C@@H](CCC(=O)O)C(=O)N[C@@H](CC(C)C)C(=O)N[C@@H](CCC(N)=O)C(=O)N[C@@H](CCCCN)C(=O)N[C@@H](CC(C)C)C(=O)N[C@@H](CC(=O)O)C(=O)N[C@@H](CCCCN)C(=O)N[C@@H](Cc1c[nH]c2ccccc12)C(=O)N[C@@H](C)C(=O)N[C@@H](CO)C(=O)N[C@@H](CC(C)C)C(=O)N[C@@H](Cc1c[nH]c2ccccc12)C(=O)N[C@@H](CCC(=O)O)C(=O)N[C@@H](Cc1c[nH]c2ccccc12)C(=O)N[C@@H](Cc1ccccc1)C(N)=O [T1249A1]
[1]
  AUC[0-8]: 71.43 µg/h/mL
  half-life: 4.71 h

## Ac-VYPSDEYDASISQVNEEINQALAYIRKADELLENV-NH2 [T786, RSV core peptide]
[2]
  ability to inhibit RSV infection (plaque formation of HEp2 cells): able to inhibit RSV infection

## Ac-WQAWDEYDASISDVNEKINQALAYIREADELWEWF-NH2 [T1303, RSV hybrid polypeptide]
[2]
  ability to inhibit RSV infection (plaque formation of HEp2 cells): inhibit RSV infection
[3]
  half-life relative to core peptide T1476: greatly enhanced half-life

## Ac-WQAWDEYDASISQVNEKINQALAYIREADELWAWF-NH2 [T1302]
[2]
  ability to inhibit RSV infection (plaque formation of HEp2 cells): inhibit RSV infection
[3]
  half-life relative to core peptide T786: greatly enhanced half-life
  half-life relative to core peptide T1476: greatly enhanced half-life

## Ac-WQEWDEYDASISQVNEKINQALAYIREADELWAWF-NH2 [T1301, Ac-WQEWDEYDASISQVNEKINOALAYIREADELWA WF-NH2]
[2]
  ability to inhibit RSV infection (plaque formation of HEp2 cells): inhibit RSV infection
[3]
  half-life relative to core peptide T786: greatly enhanced half-life
  half-life relative to core peptide T1476: greatly enhanced half-life

## Ac-WQEWEQKIQHWSYGLRPGWASLWEWF-NH2 [T1324]
[3]; CD male rats
  half-life compared to the T1323 core peptide: significantly increased half-life

## T20 (peptide)
[4]
  Kd: 1 to 2 nM

## WMEWDREINKYTSLIHSLIEESQNQQEKNEQELL [DP397]
[5]; DH012-649 strain, at higher concentrations
  inhibition of HIV-1 infection compared to T1249: increased inhibition of HIV-1 infection
[5]; RF-649 strain
  inhibition of HIV-1 infection compared to T1249: increased inhibition of HIV-1 infection
[5]; T649 resistant strains RF-649, DH012-649, 3′ETVQQQ, SIM-649
  inhibition of HIV-1 infection compared to T649: markedly increased inhibition of HIV-1 infection

## enfuvirtide [listing 1 of 2 here]
[1]
  half-life: 1.6 h

## enfuvirtide [listing 2 of 2 here]
[6]
  EC-50: 2313
  Vn/Vo = 0.1: >10000
[7]; HIV-1 9320
  Vn/Vo = 0.1: 6000 ng/mL
[7]; HIV-1 301593 (subtype B, SI)
  Vn/Vo = 0.1: 3500 ng/mL
[7]; HIV-1 301714 (subtype B, NSI)
  Vn/Vo = 0.1: 8000 ng/mL
[7]; HIV-1 302056 (subtype B, NSI)
  Vn/Vo = 0.1: 800 ng/mL
[7]; HIV-1 302077 (subtype A)
  Vn/Vo = 0.1: 3300 ng/mL
[7]; HIV-1 302143 (SI)
  Vn/Vo = 0.1: 1600 ng/mL
[7]; HIV-1 G691-2 (AZT-R)
  Vn/Vo = 0.1: 1300 ng/mL
[7]; HIV-1 IIIB, dose required to reduce virus titer by one log
  Vn/Vo = 0.1: 250 ng/mL
[7]; HIV-1 pNL4-3
  Vn/Vo = 0.1: 3500 ng/mL
[7]; HIV-1 pNL4-3 SM (T20-R)
  Vn/Vo = 0.1: >10000 ng/mL
[8]; HIV-1 9320
  fusion inhibition: 118.4 ng/mL
[8]; HIV-1 G691-2 (AZT-R)
  fusion inhibition: 406.0 ng/mL
[8]; HIV-1 G762-3 (Pre-AZT)
  fusion inhibition: 340.1 ng/mL
[8]; HIV-1 IIIB
  fusion inhibition: 2.5 ng/mL
[8]; HIV-1 MN
  fusion inhibition: 20.0 ng/mL
[8]; HIV-1 RF
  fusion inhibition: 6.1 ng/mL
[8]; HIV-1 pNL4-3 SM (T20 Resistant)
  fusion inhibition: 405.3 ng/mL
[5]; HIV-1 9320
  EC-50: 11
  Vn/Vo = 0.1: 50
[5]; HIV-1 301714 (subtype B, NSI)
  EC-50: 1065
  Vn/Vo = 0.1: 4000
[5]; HIV-1 G691-2 (AZT-R)
  EC-50: 13
  Vn/Vo = 0.1: 200
[5]; HIV-1 IIIB
  EC-50: 42
  Vn/Vo = 0.1: 80
[5]; HIV-1 pNL4-3
  EC-50: 166
  Vn/Vo = 0.1: 210
[5]; HIV-1 pNL4-3 SM (T20-R)
  EC-50: 90
  Vn/Vo = 0.1: 900
[5]; HIV-1 pNL4-3 SM (T20-R) Duke
  EC-50: 410
  Vn/Vo = 0.1: 2600
[5]; HIV-1 pNL4-3 STM (T20/T649-R)
  EC-50: >50000
  Vn/Vo = 0.1: >50000
[9]
  fusion inhibition: 3610.0 ng/mL
[10]
  infectious virus in blood or lymph tissues: not detectable
  virus in peritoneal washes and spleen preparation: detected

## WQEWEQKITALLEQAQIQQEKNEYELQKLDKWASLWEWF (not fully specified (N-terminus, C-terminus)) [T1249 (Ac-[…]-NH2)]
[11]
  Kd: 1 to 2 nM

Reference: patent US6656906B1, “Hybrid polypeptides with enhanced pharmacokinetic properties” (Trimeris, Inc., priority 1998, dated 2003)
